In ChEMBL document CHEMBL1201862, “PubChem BioAssay data set” (2004):
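Grown in 96-well plates, cells were treated for 48 hours with each compound at five concentrations. Insufficient inhibition: endpoint recorded as highest concentration tested. The concentration for 50% growth inhibition is given as GI50.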 Active and inactive are the calls of the source. Rule as the data show it: active = GI50 up to about 1.1 µM and inactive = higher.

What was measured:
Assay in all cases: NCI anticancer screen, dose series, 48 h
[1] = test system: 786-0
[2] = test system: A498
[3] = test system: CCRF-CEM
[4] = test system: COLO 205
[5] = test system: HCC 2998
[6] = test system: HCT-116
[7] = test system: HCT-15
[8] = test system: KM12
[9] = test system: MCF7
[10] = test system: NCI-H23
[11] = test system: NCI-H522
[12] = test system: OVCAR-4
[13] = test system: OVCAR-5
[14] = test system: PC-3
[15] = test system: SF-295
[16] = test system: SK-MEL-5
[17] = test system: SK-OV-3
[18] = test system: SN12C
[19] = test system: UO-31
[20] = test system: HOP-92

SMILES | GI50 [1] | GI50 [2] | GI50 [3] | GI50 [4] | GI50 [5] | GI50 [6] | GI50 [7] | GI50 [8] | GI50 [9] | GI50 [10] | GI50 [11] | GI50 [12] | GI50 [13] | GI50 [14] | GI50 [15] | GI50 [16] | GI50 [17] | GI50 [18] | GI50 [19] | GI50 [20]
Nc1ncnc2nc(N3CCN(CCO)CC3)[nH]c12 | > 100 µM (inactive) | > 100 µM (inactive) | > 100 µM (inactive) | > 100 µM (inactive) | > 100 µM (inactive) | > 100 µM (inactive) | > 100 µM | > 100 µM (inactive) | > 100 µM (inactive) | > 100 µM (inactive) | > 100 µM (inactive) | > 100 µM (inactive) | > 100 µM (inactive) | > 100 µM (inactive) | > 100 µM (inactive) | > 100 µM (inactive) | > 100 µM (inactive) | > 100 µM (inactive) | > 100 µM (inactive) | 
O=C(N/N=C/c1ccc(Br)cc1)N/N=C/c1ccc(Br)cc1 | 3.92 µM (inactive) |  | 3.24 µM (inactive) | 9.44 µM (inactive) | 17.3 µM (inactive) | 3.53 µM (inactive) | 16.8 µM | 17.1 µM (inactive) | 11.3 µM (inactive) | 22.9 µM (inactive) |  | 2.37 µM (inactive) | 35.3 µM (inactive) | 17.3 µM (inactive) | 6.19 µM (inactive) | 14.1 µM (inactive) | 2.43 µM (inactive) | 3.52 µM (inactive) | 10.9 µM (inactive) | 
Cc1ccc(C(=O)Nc2ccc(CP(=O)(O)O)cc2CP(=O)(O)O)cc1NC(=O)c1cccc(N)c1 | > 100 µM (inactive) | > 100 µM (inactive) | > 100 µM (inactive) | > 100 µM (inactive) | > 100 µM (inactive) | > 100 µM (inactive) | > 100 µM | > 100 µM (inactive) | > 100 µM (inactive) | > 100 µM (inactive) | > 100 µM (inactive) | > 100 µM (inactive) | > 100 µM (inactive) | > 100 µM (inactive) | > 100 µM (inactive) | > 100 µM (inactive) | > 100 µM (inactive) | > 100 µM (inactive) | > 100 µM (inactive) | 
COC(=O)C1=C(OC(=O)/C(=C/c2ccccc2)c2ccccc2)C(C(=O)OC)[C@@]2(O)[C@@H](C(=O)OC)[C@H](C)C[C@@H]1[C@@H]2C(=O)OC (stereo partly drawn) | > 100 µM (inactive) | > 100 µM (inactive) | > 100 µM (inactive) | > 100 µM (inactive) | > 100 µM (inactive) | > 100 µM (inactive) | > 100 µM | > 100 µM (inactive) | > 100 µM (inactive) | > 100 µM (inactive) | 45.4 µM (inactive) | > 100 µM (inactive) | > 100 µM (inactive) | > 100 µM (inactive) | 69.7 µM (inactive) | > 100 µM (inactive) | > 100 µM (inactive) | > 100 µM (inactive) | > 100 µM (inactive) | 
CCCCCCC1OC23OC1CCC2C(O)CCC3O (stereo not drawn) | > 100 µM (inactive) | > 100 µM (inactive) |  | > 100 µM (inactive) | > 100 µM (inactive) | > 100 µM (inactive) | > 100 µM | > 100 µM (inactive) | > 100 µM (inactive) | > 100 µM (inactive) | > 100 µM (inactive) | > 100 µM (inactive) | > 100 µM (inactive) | > 100 µM (inactive) | > 100 µM (inactive) | > 100 µM (inactive) |  | > 100 µM (inactive) | > 100 µM (inactive) | 
CN(C)CCCOc1nc2c(c(=O)n(C)c(=O)n2C)n1C.SC1=NC=NC2=NC=NC12 | 2.41 µM (inactive) | 32.8 µM (inactive) | 2.17 µM (inactive) | 4.3 µM (inactive) |  | 5.62 µM (inactive) | 3.14 µM | 3.85 µM (inactive) | 2.09 µM (inactive) | 6.71 µM (inactive) | 2.79 µM (inactive) | 2.25 µM (inactive) | 23.4 µM (inactive) | 8.53 µM (inactive) | 2.22 µM (inactive) | 11.1 µM (inactive) | 23.9 µM (inactive) | 4.06 µM (inactive) | 3.73 µM (inactive) | > 100 µM (inactive)
CC(C)(C)OC(=O)N1C(OP(=O)(Oc2ccccc2)Oc2ccccc2)=CSc2ccccc21 | 45.5 µM (inactive) |  |  | 20.4 µM (inactive) | 39.4 µM (inactive) | 30.2 µM (inactive) | 37.5 µM | 32.8 µM (inactive) | 28.5 µM (inactive) | 37.4 µM (inactive) | 27.1 µM (inactive) | 34 µM (inactive) | 68.9 µM (inactive) | 47.8 µM (inactive) | 29.3 µM (inactive) | 28.2 µM (inactive) | 57.8 µM (inactive) | 56.6 µM (inactive) | 27.4 µM (inactive) | 27.9 µM (inactive)
